How the values were obtained:
[1] = biological target: T1, NDUFA10 (in mouse complex I) (Mus musculus, UniProt Q99LC3); assay: cryo-EM structure, […] Å; assay type: binding; conditions: nucleotide bound to NDUFA10, adenine stacks on Phe134
T1 construct: supernumerary subunit within native intact complex I from mouse heart mitochondria
T1 sequence (Q99LC3 36-355): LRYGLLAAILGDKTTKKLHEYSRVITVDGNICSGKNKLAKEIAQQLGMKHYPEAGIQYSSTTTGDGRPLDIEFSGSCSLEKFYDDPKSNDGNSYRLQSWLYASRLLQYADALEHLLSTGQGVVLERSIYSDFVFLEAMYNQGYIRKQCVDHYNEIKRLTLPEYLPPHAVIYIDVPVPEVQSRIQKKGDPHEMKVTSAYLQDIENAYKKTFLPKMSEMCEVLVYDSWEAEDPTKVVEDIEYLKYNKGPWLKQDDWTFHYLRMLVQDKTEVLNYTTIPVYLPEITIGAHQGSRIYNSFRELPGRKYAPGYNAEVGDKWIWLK

[2] = biological target: T2, complex I (NADH:ubiquinone oxidoreductase), bovine (Bos taurus, UniProt P03887+P17694+P42026); assay: NADH oxidation ([…]-380 nm) in complex I-AOX proteoliposomes; assay type: biochemical; conditions: Q10 in membrane phase (nmol per mg phospholipid), no piericidin, AOX recycling, 200 uM NADH, pH 7.5, 32 °C
T2 construct: gene NDUFS2; native intact 45-subunit complex I from heart; in proteoliposomes with Q10 and AOX, or detergent-solubilised (EPR sample); with NADH-ubiquinone oxidoreductase chain 2; NADH-ubiquinone oxidoreductase chain 3; NADH-ubiquinone oxidoreductase chain 4; NADH-ubiquinone oxidoreductase chain 4L; NADH-ubiquinone oxidoreductase chain 5; NADH-ubiquinone oxidoreductase chain 6; NADH-ubiquinone oxidoreductase 75 kDa subunit, mitochondrial; NADH dehydrogenase [ubiquinone] flavoprotein 1, mitochondrial; NADH dehydrogenase [ubiquinone] flavoprotein 2, mitochondrial; NADH dehydrogenase [ubiquinone] iron-sulfur protein 3, mitochondrial; NADH dehydrogenase [ubiquinone] iron-sulfur protein 8, mitochondrial
T2 sequence (P17694 34-463): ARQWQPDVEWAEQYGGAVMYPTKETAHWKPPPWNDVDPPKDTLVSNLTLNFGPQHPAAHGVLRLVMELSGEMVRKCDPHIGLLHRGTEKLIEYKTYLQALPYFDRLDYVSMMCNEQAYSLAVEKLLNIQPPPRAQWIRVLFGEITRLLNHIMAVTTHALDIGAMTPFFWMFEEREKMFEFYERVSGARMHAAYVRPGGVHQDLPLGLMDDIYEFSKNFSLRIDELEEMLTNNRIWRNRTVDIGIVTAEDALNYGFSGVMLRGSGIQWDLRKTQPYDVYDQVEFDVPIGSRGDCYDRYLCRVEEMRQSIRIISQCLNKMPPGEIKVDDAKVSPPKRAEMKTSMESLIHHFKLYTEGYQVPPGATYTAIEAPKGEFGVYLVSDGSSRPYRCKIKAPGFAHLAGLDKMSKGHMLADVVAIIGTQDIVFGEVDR
T2 sequence (P42026 38-216): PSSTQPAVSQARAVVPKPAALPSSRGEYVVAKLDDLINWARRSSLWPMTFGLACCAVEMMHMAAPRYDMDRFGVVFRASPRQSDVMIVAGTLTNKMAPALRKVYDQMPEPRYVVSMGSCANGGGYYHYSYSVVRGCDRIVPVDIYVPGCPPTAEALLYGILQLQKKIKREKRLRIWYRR
T2 sequence (P03887 whole entry): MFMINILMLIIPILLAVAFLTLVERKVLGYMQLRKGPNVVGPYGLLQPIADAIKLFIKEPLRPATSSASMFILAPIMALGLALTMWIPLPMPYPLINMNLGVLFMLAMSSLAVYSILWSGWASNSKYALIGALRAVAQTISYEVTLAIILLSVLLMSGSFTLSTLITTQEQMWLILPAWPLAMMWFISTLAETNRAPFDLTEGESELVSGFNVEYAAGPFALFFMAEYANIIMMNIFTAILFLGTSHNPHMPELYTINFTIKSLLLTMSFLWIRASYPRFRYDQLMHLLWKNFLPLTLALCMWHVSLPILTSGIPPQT

[3] = biological target: T2, complex I (NADH:ubiquinone oxidoreductase), bovine; assay: global kinetic fit of NADH oxidation in proteoliposomes; assay type: biochemical; conditions: two-site competitive model; second inhibitor binds more tightly; Q10 varied, AOX recycling, 200 uM NADH, pH 7.5, 32 °C
[4] = biological target: T3, mouse complex I (Mus musculus, UniProt P03888+Q91WD5+Q9DC70); assay: cryo-EM structure, […] Å; conditions: ubiquinone-binding site, active state, cluster N2 reduced; NDUFS2 His59 and Tyr108
T3 construct: gene Ndufs2; native intact 45-subunit complex I purified from heart mitochondria in DDM; with NADH-ubiquinone oxidoreductase chain 2; NADH-ubiquinone oxidoreductase chain 3; NADH-ubiquinone oxidoreductase chain 4; NADH-ubiquinone oxidoreductase chain 4L; NADH-ubiquinone oxidoreductase chain 5; NADH-ubiquinone oxidoreductase chain 6; NADH-ubiquinone oxidoreductase 75 kDa subunit, mitochondrial; NADH dehydrogenase [ubiquinone] flavoprotein 1, mitochondrial; NADH dehydrogenase [ubiquinone] flavoprotein 2, mitochondrial; NADH dehydrogenase [ubiquinone] iron-sulfur protein 3, mitochondrial; NADH dehydrogenase [ubiquinone] iron-sulfur protein 8, mitochondrial
T3 sequence (Q91WD5 34-463): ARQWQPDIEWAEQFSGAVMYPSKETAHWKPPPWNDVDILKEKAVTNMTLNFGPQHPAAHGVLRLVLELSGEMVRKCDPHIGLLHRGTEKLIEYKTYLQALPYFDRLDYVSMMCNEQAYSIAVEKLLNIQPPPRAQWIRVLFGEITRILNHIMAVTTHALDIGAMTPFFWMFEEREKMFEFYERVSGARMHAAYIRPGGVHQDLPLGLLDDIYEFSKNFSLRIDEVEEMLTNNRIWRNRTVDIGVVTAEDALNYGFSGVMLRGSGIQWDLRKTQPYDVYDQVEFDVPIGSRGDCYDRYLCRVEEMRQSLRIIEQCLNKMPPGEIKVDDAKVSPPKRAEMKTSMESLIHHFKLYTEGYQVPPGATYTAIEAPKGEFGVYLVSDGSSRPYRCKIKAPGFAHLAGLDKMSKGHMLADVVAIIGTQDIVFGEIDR
T3 sequence (Q9DC70 36-224): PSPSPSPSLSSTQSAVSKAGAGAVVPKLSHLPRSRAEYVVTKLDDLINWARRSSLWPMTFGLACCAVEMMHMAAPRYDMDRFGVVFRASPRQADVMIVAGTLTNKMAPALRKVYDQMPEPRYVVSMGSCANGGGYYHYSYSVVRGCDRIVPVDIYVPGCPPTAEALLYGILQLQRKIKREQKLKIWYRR
T3 sequence (P03888 whole entry): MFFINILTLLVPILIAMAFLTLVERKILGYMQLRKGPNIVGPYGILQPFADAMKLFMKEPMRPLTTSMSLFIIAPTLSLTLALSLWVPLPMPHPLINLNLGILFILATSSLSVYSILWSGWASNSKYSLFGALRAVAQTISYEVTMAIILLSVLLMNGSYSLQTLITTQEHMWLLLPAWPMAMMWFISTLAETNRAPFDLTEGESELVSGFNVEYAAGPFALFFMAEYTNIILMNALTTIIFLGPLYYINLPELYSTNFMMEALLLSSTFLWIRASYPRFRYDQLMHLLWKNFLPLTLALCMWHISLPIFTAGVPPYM

## Nc1ncnc2c1ncn2[C@@H]1O[C@H](COP(=O)(O)OP(=O)(O)OP(=O)(O)O)[C@@H](O)[C@H]1O [ATP]
[1]
  cryo-EM structure, 3.0 Å: replacement of the ADP bound to NDUFA10 with ATP

## COC1=C(OC)C(=O)C(C/C=C(\C)CC/C=C(\C)CC/C=C(\C)CC/C=C(\C)CC/C=C(\C)CC/C=C(\C)CC/C=C(\C)CC/C=C(\C)CC/C=C(\C)CCC=C(C)C)=C(C)C1=O [Q10]
[2]
  KM,app: modelled by a series of Michaelis–Menten curves for their Q10 dependence

## C/C=C(\C)[C@H](O)[C@H](C)/C=C(C)/C=C/C/C(C)=C/Cc1nc(OC)c(OC)c(O)c1C [piericidin A]
[3]
  KI: the second inhibitor binds substantially more tightly than the first
[4]
  cryo-EM structure, 3.0 Å: The piericidin headgroup binds adjacent to NDUFS2 His59 and Tyr108

Source: PMC7567858, “Structure of inhibitor-bound mammalian complex I” (Nature Communications, 2020)
